In patent US5824696A, “Medicaments” (SmithKline Beecham Corporation, priority 1993, dated 1998):
Numbering of substitutions follows the chain as printed. Where two headings read alike, the source gives them in different places.

Tests used:
[1] = target: T1, contractile response to angiotensin II in the isolated rabbit aorta (Oryctolagus cuniculus, UniProt P34976); assay: Antagonism of angiotensin II induced vasoconstriction in isolated rabbit aorta; conditions: rabbit thoracic aorta rings, 30-minute incubation, dose ratio method; read-out: Antagonist dissociation constant (KB)
T1 construct: Ring segments are cut from the rabbit thoracic aorta; from tissue; host or cells: rabbit thoracic aorta ring segments
T1 sequence (P34976 1-359): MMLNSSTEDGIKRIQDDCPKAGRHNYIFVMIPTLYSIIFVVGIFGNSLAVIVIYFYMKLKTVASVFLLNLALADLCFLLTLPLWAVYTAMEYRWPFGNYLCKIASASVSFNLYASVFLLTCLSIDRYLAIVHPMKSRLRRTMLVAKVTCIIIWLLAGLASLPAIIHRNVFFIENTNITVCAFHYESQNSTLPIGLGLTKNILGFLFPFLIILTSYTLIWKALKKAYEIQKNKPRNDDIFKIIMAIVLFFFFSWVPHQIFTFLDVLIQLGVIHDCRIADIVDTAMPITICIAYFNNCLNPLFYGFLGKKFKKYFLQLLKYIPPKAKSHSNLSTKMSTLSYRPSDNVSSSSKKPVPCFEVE
Method: Angiotensin II antagonist activity is assessed by in vitro methods In vitro antagonist activity is determined by the ability of the compounds to compete with ^125 I-angiotensin II for binding to vascular angiotensin II receptors and by their ability to antagonize the contractile response to angiotensin II in the isolated rabbit aorta.
The ability of the compounds to antagonize angiotensin II induced vasoconstriction is examined in the rabbit aorta. Ring segments are cut from the rabbit thoracic aorta and suspended in organ baths containing physiological salt solution. The ring segments are mounted over metal supports and attached to force displacement transducers which are connected to a recorder. Cumulative concentration response curves to angiotensin II are performed in the absence of antagonist or following a 30-minute incubation with antagonist. Antagonist dissociation constants (KB) are calculated by the dose ratio method using the mean effective concentrations. The KB for (E)-3-[2-n-butyl-1-{4-carboxynaphth-1-yl)methyl}-1H-imidazol-5-yl]-2-(2-thienyl)methyl-2-propenoic acid is about 0.15 nM.

[2] = target: T2, angiotensin receptors in human synovium (Homo sapiens, UniProt P30556); assay: Inhibition of [125I](Sar1, Ile8)AII binding to human synovium, quantitative receptor autoradiography; parameters: Binding of [125I](Sar1, Ile8) angiotensin II in the presence of antagonist: unit not given here; conditions: for Ki / nHill values: osteoarthritic synovium; for Ki: 0.25 nM [125I](Sar1, Ile8)AII; for Binding of [125I](Sar1, Ile8) angiotensin II in the presence of antagonist: 10 μM antagonist; for Binding of [125I](Sar1, Ile8) angiotensin II in the presence of DTT: osteoarthritis
T2 construct: Human knee synovium was collected at surgery from patients with osteoarthritis or rheumatoid arthritis; from tissue; host or cells: human knee synovium cryostat sections (osteoarthritis, rheumatoid arthritis, chondromalacia patellae)
T2 sequence (P30556 1-359): T1 sequence (P34976 1-359) with M2I, A49V, V254I, V270I, H272R, K311R, S349T, V353A
Method: Human knee synovium was collected at surgery from patients with osteoarthritis or rheumatoid arthritis undergoing total knee replacement and patients with chondromalacia patellae undergoing carbon fibre resurfacing of articular cartilage. Tissue samples were immediately embedded in Tissue-Tek (Miles Inc., Elkhart, Ind., USA) and frozen to cork mounts in melting isopentane without prior fixation. Specimens were stored at -40° C. until use. […] thick sections were cut in a cryostat and thaw mounted onto Vectabond™ (Vector Laboratories, Peterborough, U.K.) treated slides, air dried and used immediately, or stored at -20° C. with silica gel for up to 5 days until use.
[…] Excess buffer was removed and sections were incubated for 90 minutes with ligand in buffer B (buffer A plus 1% bovine serum albumin). […] Except where stated, incubations were performed at 22° C.
Films were developed in Kodak D9 for 3 minutes at 15° C. […] Synovial structures were identified, where necessary, by comparison of films with tissue sections counterstained with haematoxylin and eosin. Tissue structures (blood vessels, lining cells and regions of subintimal stroma displaying specific binding) were each delineated interactively. Binding was quantified on the 20 blood vessels in each section with the most dense specific binding.
Specific binding was defined as total minus non-specific binding. Characterisation of specific binding was performed on samples of synovium from patients with osteoarthritis.
Kinetic and equilibrium constants were derived from specific binding values by iterative non-linear regression assuming single site models using GraphPAD Inplot4 (San Diego). […] Values for binding inhibition constants (Ki) and HIll coefficients (nHill) were derived by fitting to sigmoid curves.

[3] = tested on: angiotensin receptors in human synovium; assay: Guanine nucleotide sensitivity of [125I]AII binding to human synovium; conditions: 1 μM GTPγS

CCCCc1ncc(/C=C(\Cc2cccs2)C(=O)O)n1Cc1ccc(C(=O)O)c2ccccc12 [(E)-3-[2-n-butyl-1-{4-carboxynaphth-1-yl)methyl}-1H-imidazol-5-yl]-2-(2-thienyl)methyl-2-propenoic acid]
Kb [1]: ~0.00015 µM

Cc1cc(Cn2cnc3c2C[C@@H](C(=O)O)N(C(=O)C(c2ccccc2)c2ccccc2)C3)ccc1N(C)C [PD123319]
Inhibition of specific [125I](Sar1, Ile8)AII binding to each structure ([2]; 10 μM, synovium from patients with osteoarthritis and rheumatoid arthritis): not significantly inhibited | Ki ([2]; Ki values, blood vessels): > 10 µM | Ki ([2]; Ki values, lining cells): > 10 µM | Ki ([2]; Ki values, stroma): > 10 µM | Binding of [125I](Sar1, Ile8) angiotensin II in the presence of antagonist ([2]; blood vessels, OA, total 7.9, nonspecific 2.4): 7.1 | Binding of [125I](Sar1, Ile8) angiotensin II in the presence of antagonist ([2]; blood vessels, RA, total 14, nonspecific 2.6): 12 | Binding of [125I](Sar1, Ile8) angiotensin II in the presence of antagonist ([2]; lining cells, OA, total 3.6, nonspecific 1.6): 3.8 | Binding of [125I](Sar1, Ile8) angiotensin II in the presence of antagonist ([2]; lining cells, RA, total 5.7, nonspecific 1.7): 5.5 | Binding of [125I](Sar1, Ile8) angiotensin II in the presence of antagonist ([2]; stroma, OA, total 2.4, nonspecific 1.5): 2.2 | Binding of [125I](Sar1, Ile8) angiotensin II in the presence of antagonist ([2]; stroma, RA, total 3.0, nonspecific 1.6): 2.9

O[C@H](CS)[C@H](O)CS (racemic) [DTT, dithiothreitol]
Inhibition of specific [125I](Sar1, Ile8)AII binding to each structure ([2]; 10 mM DTT): completely inhibited | Binding of [125I](Sar1, Ile8) angiotensin II in the presence of DTT ([2]; blood vessels, 10 mM DTT, total 10.2, nonspecific 3.2): 3.2 (2.9 to 3.5) amol mm^-2 | Binding of [125I](Sar1, Ile8) angiotensin II in the presence of DTT ([2]; lining cells, 10 mM DTT, total 5.1, nonspecific 2.1): 2.0 (1.8 to 2.3) amol mm^-2 | Binding of [125I](Sar1, Ile8) angiotensin II in the presence of DTT ([2]; stroma, 10 mM DTT, total 2.6, nonspecific 1.7): 1.6 (1.5 to 1.7) amol mm^-2

CCCCc1ncc(/C=C(\Cc2cccs2)C(=O)O)n1Cc1ccc(C(=O)O)cc1 [(E)-3-[2-n-butyl-1-{4-carboxyphenyl)methyl}-1H-imidazol-5-yl]-2-(2-thienyl)methyl-2-propenoic acid]
nHill values ([2]; blood vessels): 1.2 | Ki ([2]; blood vessels, read-out: Ki values): 0.049 µM | Inhibition of binding of [125I](Sar1, Ile8)AII to microvessels, lining cells and stroma ([2]; inflamed human synovium): potently and completely inhibited | nHill values ([2]; lining cells): 0.8 | Ki ([2]; lining cells, read-out: Ki values): 0.0603 µM | nHill values ([2]; stroma): 0.8 | Ki ([2]; stroma, read-out: Ki values): 0.0813 µM

Nc1nc2c(ncn2[C@@H]2O[C@H](COP(=O)(O)OP(=O)(O)OP(O)(O)=S)[C@@H](O)[C@H]2O)c(=O)[nH]1 [GTPγS, guanosine 5'-O-(3-thiotriphosphate)]
Inhibition of [125I](Sar1, Ile8)AII binding ([2]; 1 μM GTPγS): did not inhibit | Inhibition of binding of agonist [125I]AII to each structure [3]: levels not significantly different from nonspecific binding
